From ChEMBL document CHEMBL5653631, “A Potent and Selective ULK1 Inhibitor Suppresses Autophagy and Sensitizes Cancer Cells to Nutrient Stress” (iScience, 2018)
Blank lines part the entries; values can stand above or below the molecule they belong to.

Tests used:
[1] = target: T1, Serine/threonine-protein kinase haspin (Homo sapiens) (UniProt Q8TF76); assay: Inhibition of human recombinant Haspin at 500 nM related to control ULK1
T1 sequence (whole entry): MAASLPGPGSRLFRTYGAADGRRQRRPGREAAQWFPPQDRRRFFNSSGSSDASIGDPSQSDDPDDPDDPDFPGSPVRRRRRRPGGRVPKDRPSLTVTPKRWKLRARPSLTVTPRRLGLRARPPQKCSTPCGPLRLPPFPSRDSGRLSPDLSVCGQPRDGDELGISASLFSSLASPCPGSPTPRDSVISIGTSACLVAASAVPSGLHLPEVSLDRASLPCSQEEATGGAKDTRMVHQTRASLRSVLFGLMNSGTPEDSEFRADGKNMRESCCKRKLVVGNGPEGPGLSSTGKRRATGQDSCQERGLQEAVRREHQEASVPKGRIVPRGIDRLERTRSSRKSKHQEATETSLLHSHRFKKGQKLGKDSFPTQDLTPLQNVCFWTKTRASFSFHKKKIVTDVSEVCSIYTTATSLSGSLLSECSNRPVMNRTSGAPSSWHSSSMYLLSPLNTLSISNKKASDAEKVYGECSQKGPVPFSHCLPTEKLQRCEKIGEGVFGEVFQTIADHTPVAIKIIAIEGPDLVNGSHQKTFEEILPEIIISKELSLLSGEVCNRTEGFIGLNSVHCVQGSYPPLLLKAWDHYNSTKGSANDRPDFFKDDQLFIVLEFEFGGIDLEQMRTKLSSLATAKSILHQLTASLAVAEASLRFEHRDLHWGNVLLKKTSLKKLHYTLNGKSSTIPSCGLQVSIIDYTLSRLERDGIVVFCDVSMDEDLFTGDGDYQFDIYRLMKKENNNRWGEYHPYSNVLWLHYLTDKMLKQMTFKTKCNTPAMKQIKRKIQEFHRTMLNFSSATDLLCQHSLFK

[2] = target: Tyrosine-protein kinase FRK (Homo sapiens) (UniProt P42685); assay: Inhibition of human recombinant FRK at 500 nM related to control ULK1
[3] = target: T2, Testis-specific serine/threonine-protein kinase 4 (Homo sapiens) (UniProt Q6SA08); assay: Inhibition of human recombinant TSSK4 at 500 nM related to control ULK1
T2 sequence (whole entry): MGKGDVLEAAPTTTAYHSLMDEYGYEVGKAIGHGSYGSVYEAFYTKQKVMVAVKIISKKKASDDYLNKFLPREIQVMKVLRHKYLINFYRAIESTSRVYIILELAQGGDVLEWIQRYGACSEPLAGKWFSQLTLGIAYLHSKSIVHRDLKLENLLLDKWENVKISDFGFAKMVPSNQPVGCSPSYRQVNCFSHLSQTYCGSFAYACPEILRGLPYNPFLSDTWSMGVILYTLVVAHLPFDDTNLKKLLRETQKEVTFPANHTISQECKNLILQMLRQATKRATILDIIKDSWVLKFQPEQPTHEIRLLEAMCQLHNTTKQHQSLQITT

[4] = target: T3, MAP/microtubule affinity-regulating kinase 4 (Homo sapiens) (UniProt Q96L34); assay: Inhibition of human recombinant MARK4 at 15 nM in presence of ATP by radiometric assay relative to control
T3 sequence (whole entry): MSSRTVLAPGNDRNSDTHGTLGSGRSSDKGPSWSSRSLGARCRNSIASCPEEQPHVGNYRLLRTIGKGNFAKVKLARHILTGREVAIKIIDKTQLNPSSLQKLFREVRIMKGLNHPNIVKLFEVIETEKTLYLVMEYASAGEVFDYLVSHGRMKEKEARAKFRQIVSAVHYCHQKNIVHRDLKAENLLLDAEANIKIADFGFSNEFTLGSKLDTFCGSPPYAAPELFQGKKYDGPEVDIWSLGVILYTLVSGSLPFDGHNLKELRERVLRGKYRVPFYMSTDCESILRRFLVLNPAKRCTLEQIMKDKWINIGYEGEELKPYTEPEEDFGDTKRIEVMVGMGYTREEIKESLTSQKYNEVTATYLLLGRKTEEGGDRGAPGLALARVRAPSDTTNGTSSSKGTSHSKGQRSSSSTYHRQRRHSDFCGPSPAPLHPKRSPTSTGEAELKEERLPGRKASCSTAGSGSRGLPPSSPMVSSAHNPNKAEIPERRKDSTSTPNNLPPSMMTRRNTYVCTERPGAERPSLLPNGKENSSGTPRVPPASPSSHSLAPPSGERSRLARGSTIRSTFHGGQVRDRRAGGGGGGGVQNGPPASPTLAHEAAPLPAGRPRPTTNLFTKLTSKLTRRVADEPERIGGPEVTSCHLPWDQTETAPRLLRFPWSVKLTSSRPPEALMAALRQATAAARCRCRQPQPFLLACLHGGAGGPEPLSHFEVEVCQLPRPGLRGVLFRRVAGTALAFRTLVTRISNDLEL

[5] = target: ALK tyrosine kinase receptor (Homo sapiens) (UniProt Q9UM73); assay: Inhibition of human recombinant ALK at 15 nM related to control ULK1
[6] = target: Serine/threonine-protein kinase PAK 5 (Homo sapiens) (UniProt Q9P286); assay: Inhibition of human recombinant PAK5 at 15 nM related to control ULK1
[7] = target: SRSF protein kinase 3 (Homo sapiens) (UniProt Q9UPE1); assay: Inhibition of human recombinant MSSK1 at 15 nM in presence of ATP by radiometric assay relative to control
[8] = target: T4, Serine/threonine-protein kinase STK11 (Homo sapiens) (UniProt Q15831); assay: Inhibition of human recombinant LKB1 at 15 nM in presence of ATP by radiometric assay relative to control
T4 sequence (whole entry): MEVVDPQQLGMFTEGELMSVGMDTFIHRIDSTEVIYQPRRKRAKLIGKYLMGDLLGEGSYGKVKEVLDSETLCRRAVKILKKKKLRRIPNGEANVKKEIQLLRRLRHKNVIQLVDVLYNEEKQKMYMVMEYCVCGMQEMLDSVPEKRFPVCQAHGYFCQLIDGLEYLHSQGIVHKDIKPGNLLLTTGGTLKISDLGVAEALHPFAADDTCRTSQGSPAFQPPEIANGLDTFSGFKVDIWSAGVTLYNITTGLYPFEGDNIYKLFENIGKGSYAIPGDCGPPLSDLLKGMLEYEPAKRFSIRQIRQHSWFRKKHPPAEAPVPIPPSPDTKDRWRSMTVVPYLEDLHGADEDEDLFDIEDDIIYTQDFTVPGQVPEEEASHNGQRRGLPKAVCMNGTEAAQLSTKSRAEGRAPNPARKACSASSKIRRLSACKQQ

[9] = target: Serine/threonine-protein kinase NIM1 (Homo sapiens) (UniProt Q8IY84); assay: Inhibition of human recombinant NIM1 at 40 nM related to control ULK1
Chain of Serine/threonine-protein kinase NIM1 (Homo sapiens) (Q8IY84 whole entry): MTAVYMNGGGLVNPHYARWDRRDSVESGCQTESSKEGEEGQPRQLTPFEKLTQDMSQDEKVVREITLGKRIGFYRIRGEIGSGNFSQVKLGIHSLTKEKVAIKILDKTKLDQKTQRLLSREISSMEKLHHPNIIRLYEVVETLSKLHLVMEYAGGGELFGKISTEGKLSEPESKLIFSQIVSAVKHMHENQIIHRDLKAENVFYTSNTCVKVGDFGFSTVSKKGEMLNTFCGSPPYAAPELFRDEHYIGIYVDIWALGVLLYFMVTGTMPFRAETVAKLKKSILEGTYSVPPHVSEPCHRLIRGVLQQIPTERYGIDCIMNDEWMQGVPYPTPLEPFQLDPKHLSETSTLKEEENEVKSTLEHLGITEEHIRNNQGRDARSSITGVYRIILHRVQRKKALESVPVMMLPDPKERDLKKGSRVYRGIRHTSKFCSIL

Chain of SRSF protein kinase 3 (Homo sapiens) (Q9UPE1 whole entry): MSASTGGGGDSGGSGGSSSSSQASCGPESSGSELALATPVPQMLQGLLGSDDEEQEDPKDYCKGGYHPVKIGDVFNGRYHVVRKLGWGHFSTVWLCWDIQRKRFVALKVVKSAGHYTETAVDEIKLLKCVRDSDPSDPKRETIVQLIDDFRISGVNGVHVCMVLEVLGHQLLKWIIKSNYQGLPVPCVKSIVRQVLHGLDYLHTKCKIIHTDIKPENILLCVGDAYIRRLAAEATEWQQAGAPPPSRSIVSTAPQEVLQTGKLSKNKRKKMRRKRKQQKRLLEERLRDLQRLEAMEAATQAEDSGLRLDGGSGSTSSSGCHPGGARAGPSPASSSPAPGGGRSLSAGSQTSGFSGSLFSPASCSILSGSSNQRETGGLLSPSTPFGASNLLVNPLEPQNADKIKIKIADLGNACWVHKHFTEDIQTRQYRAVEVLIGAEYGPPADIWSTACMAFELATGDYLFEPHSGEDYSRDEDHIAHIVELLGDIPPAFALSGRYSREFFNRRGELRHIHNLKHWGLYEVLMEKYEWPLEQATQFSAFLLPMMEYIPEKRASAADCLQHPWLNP
Chain of Tyrosine-protein kinase FRK (Homo sapiens) (P42685 whole entry): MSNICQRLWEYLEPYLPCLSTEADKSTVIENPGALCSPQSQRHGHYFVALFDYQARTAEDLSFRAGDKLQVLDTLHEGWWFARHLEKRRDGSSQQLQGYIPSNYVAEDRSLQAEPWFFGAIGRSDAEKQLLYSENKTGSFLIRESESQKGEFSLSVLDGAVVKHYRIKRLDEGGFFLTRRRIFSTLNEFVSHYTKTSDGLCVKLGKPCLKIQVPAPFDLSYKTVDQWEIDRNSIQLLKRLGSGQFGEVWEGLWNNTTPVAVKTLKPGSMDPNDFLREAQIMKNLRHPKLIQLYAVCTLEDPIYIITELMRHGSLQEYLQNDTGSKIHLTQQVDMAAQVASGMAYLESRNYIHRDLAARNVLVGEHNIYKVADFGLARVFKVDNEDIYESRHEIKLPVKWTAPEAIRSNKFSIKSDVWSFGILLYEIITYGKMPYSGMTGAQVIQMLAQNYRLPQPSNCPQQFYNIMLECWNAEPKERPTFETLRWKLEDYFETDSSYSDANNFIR
Chain of Serine/threonine-protein kinase PAK 5 (Homo sapiens) (Q9P286 whole entry, looked up): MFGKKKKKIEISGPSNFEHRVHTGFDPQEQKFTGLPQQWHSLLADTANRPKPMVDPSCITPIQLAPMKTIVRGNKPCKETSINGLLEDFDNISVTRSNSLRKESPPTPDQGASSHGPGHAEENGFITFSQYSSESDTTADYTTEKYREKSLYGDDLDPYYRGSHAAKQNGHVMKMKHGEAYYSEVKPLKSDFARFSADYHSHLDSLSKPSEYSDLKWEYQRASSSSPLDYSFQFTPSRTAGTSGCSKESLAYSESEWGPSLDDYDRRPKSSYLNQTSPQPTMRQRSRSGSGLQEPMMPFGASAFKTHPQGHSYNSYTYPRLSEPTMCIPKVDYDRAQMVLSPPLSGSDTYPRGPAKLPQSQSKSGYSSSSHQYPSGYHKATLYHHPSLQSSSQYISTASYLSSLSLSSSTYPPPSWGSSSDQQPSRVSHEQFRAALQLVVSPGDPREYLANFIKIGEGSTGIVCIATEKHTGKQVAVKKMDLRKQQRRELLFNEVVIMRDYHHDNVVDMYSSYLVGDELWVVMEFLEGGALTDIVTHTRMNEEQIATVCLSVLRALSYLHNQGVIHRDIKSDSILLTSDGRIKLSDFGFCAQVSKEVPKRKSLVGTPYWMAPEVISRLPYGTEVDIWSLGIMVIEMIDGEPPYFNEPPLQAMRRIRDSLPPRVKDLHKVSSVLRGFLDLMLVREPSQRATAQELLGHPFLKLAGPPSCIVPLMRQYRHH
Chain of ALK tyrosine kinase receptor (Homo sapiens) (Q9UM73 19-1620 limits assumed): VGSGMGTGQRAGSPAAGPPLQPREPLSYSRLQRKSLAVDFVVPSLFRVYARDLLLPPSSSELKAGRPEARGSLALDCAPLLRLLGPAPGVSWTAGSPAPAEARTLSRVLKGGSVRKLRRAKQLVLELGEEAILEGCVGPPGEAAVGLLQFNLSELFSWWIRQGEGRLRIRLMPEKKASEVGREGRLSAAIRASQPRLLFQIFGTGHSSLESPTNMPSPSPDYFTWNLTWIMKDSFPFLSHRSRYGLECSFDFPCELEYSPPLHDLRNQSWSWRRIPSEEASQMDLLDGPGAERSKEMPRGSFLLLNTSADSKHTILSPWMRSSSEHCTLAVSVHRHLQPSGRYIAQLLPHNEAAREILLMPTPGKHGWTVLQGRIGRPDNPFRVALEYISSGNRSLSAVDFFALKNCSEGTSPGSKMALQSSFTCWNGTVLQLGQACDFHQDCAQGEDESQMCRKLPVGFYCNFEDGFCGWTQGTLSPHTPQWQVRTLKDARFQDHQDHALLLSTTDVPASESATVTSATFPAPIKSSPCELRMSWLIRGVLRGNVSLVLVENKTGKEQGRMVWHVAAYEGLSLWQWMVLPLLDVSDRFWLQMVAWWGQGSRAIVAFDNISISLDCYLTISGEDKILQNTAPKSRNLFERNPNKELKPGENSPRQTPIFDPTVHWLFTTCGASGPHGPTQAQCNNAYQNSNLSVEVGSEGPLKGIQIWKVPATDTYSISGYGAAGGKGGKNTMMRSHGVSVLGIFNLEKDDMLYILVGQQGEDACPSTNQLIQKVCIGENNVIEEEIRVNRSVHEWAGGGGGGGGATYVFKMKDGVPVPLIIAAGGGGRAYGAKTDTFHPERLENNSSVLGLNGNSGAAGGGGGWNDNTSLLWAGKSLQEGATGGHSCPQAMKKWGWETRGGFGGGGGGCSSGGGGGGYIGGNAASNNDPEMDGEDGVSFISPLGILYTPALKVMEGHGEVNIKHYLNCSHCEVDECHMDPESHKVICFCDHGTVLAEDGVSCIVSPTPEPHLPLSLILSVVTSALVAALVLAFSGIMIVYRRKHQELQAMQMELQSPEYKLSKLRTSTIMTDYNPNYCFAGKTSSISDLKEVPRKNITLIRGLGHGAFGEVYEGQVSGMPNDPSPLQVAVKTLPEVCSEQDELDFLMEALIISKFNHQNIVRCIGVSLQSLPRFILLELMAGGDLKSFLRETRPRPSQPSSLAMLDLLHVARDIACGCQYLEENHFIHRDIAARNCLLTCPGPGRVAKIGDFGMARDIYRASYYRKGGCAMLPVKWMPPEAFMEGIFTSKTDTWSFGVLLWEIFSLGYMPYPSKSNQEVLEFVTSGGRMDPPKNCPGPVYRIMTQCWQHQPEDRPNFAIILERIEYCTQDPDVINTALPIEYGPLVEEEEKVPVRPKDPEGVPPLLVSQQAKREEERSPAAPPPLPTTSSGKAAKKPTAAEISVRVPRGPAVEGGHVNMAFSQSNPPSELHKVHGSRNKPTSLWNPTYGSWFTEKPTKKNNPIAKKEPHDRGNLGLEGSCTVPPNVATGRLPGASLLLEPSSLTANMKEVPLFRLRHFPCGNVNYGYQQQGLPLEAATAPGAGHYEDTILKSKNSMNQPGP

- fold change (FC) [1]: 0
- fold change (FC) [2]: 0.12
- fold change (FC) [3]: 0
Structure (SMILES): CNC(=O)c1ccccc1Oc1nc(Nc2cc(OC)c(OC)c(OC)c2)ncc1Br

- inhibition [4]: 42%
- fold change (FC) [5]: 0
- fold change (FC) [6]: 0
- inhibition [7]: 0%
- inhibition [8]: 0%
Structure (SMILES): CC(C)[C@H](NC(=O)c1cc(-c2cnn3cc(-c4ccc(OCCN5CCCCC5)cc4)cnc23)cs1)C(F)(F)F

- fold change (FC) [9]: 0
Structure (SMILES): O=C(N[C@@H](C1CC1)C(F)(F)F)c1cc(-c2cnn3cc(-c4ccc(F)cc4)cnc23)cs1
